For series [1], the system named is PL A2. The settings on record: range given in words, art-known PL A2 inhibitors; cited from earlier work.
For series [2], the system named is C57BL/6J mouse model of obesity. Briefly: Mouse diet-induced obesity model (Example 19). The settings on record: low fat control diet D12328, 25 or 90 mg/kg/d. The class given is in vivo. An excerpt: The high-fat diet-fed C57BL/6J mouse model of human diabetes, originally introduced by Surwit and colleagues (Surwit, R S, et al. (1988) “Diet-induced type II diabetes in C57BL/6J mice”, Diabetes 37: 1163-1167) is a widely accepted, clinically relevant, polygenic model that induces obesity, dyslipidemia, glucose- and insulin-resistance as early as 3 weeks after commencing the high fat diet (Winzell, M S and Ahren, B (2004) “The high-fat diet-fed mouse: a model for studying mechanisms and treatment of impaired glucose tolerance and type 2 diabetes”, Diabetes 53 Suppl 3: S215-219). This model was used to investigate the effects of indole and indole-related Test Articles. Avandia (rosiglitazone) was used as a control Test Article. […]
In these studies and the accompanying figures, Diet D12328 from Research Diets is referred to as the “Low Fat” or Control diet/chow, while Diet D12331 from Research Diets is referred to as the “High Fat” diet. […] The Test Article content was calculated such that ad libitum consumption by the animals would deliver doses (in mg of Test Article per kg animal weight per day) approximating those listed in Table 11.
Animals were maintained on the diets for up to eleven weeks. Body weights were recorded weekly. […] The serum was analyzed for glucose, total cholesterol, triglycerides (TG) and lysophospholipid (LPC) content. […]

Series [3] concerns LDL receptor knockout mice. In words: LDL receptor knockout mouse model (Example 20). The class given is in vivo. The settings on record: low fat control diet D12328, 25 or 90 mg/kg/d. An excerpt: Mice lack an enzyme found in humans, cholesterol ester transfer protein (CETP), which is responsible for the transfer of cholesterol from high density lipoproteins (HDL) to the ApoB-containing lipoproteins such as very low density lipoproteins (VLDL) and low density lipoproteins (LDL). Consequently, LDL cholesterol levels in wild-type mice are very low compared to those seen in humans. The low density lipoprotein receptor (LDLR) is involved with clearing LDL and lipoprotein remnants containing apoE. If the LDLR is inactivated, LDL cholesterol levels rise to levels seen in humans. On a normal rodent diet, the LDL cholesterol levels in LDLR deficient mice are elevated compared to wild-type mice. […]
In these studies and the accompanying figures, Diet D12328 from Research Diets is referred to as the “Low Fat” or Control diet, while Diet D12079B from Research Diets is referred to as the “Western” diet. […] The Test Article content was calculated such that ad libitum consumption by the animals would deliver doses (in mg of Test Article per Kg animal weight per day) approximating those listed in Table 12.
Animals were maintained on the diets for eight weeks. Body weights were recorded weekly. […] The serum was analyzed for total cholesterol, LDL cholesterol, HDL cholesterol, triglycerides (TG), free fatty acid (FFA) and lysophospholipid (LPC) content. […]

Series [4] has as its system mice. In words: Toxicology, daily oral gavage for 5 consecutive days (Example 23). The class given is in vivo. An excerpt:
The purpose of this study was to evaluate the toxicity of indole and indole-related Test Articles when administered daily via oral gavage to mice for 5 consecutive days.
Assessment of toxicity was based on mortality; clinical signs, body weight, food consumption, clinical pathology, and macroscopic pathology data.

Series [5] addresses T1, human group 1B PLA2 (hps PLA2) (Homo sapiens, UniProt P04054).
T1 construct: made in house; host or cells: E. coli
Briefly: Fluorimetric PPyrPM assay for group 1B PLA2 inhibition (Example 12). The class given is biochemical. The settings on record: human pancreas secreted PLA2; read-out: ILYPSA IC50 hps PLA2.

The target of series [6] is T2, mouse group 1B PLA2 (mps PLA2) (Mus musculus, UniProt Q9Z0Y2).
T2 construct: made in house; host or cells: E. coli
T2 sequence (Q9Z0Y2 23-146): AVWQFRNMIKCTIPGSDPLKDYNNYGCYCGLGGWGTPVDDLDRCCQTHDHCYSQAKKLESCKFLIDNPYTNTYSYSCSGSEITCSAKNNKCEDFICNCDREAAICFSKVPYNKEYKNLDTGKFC
Described as above. The settings on record: mouse pancreas secreted PLA2; read-out: ILYPSA IC50 mps PLA2. The series is classed as biochemical.

Series [7] has as its target T3, porcine group 1B PLA2 (pps PLA2) (Sus scrofa, UniProt P00592).
T3 construct: purchased
The series is described as above. The series is classed as biochemical. As to conditions: porcine pancreas secreted PLA2; read-out: ILYPSA IC50 pps PLA2. An outline of the steps: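 Porcine group 1B PLA2 hydrolysis of 4.2 uM PPyrPM vesicle solution (pre-mixing concentration) in 50 mM Tris-HCl pH 8.0, 50 mM KCl, 1 mM CaCl2 with BSA; inhibitors in 8-point threefold series from 15 uM. After 3 min at 37 °C, fluorescence read at ex 342/em 395 nm; duplicate IC50 by four-parameter fit.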

Series [8] is described as follows: Mouse pharmacokinetic study, IV vs oral (Example 18). The class given is in vivo, male CD-1 mice. As to conditions: PO 30 mg/kg vs IV 3 mg/kg, serum by LC/MS/MS; for bioavailability: male, CD-1, mouse, in vivo. Here is the method: The plasma exposure of male CD-1 mice to indole and indole-related test articles (TAs) following intravenous (IV, 3 mg/kg) and oral (PO, 30 mg/kg) routes of administration was measured. This model was used to investigate the bioavailability of indole and indole-related TAs in mouse. Mice were selected for the study since they are an accepted species frequently used in pre-clinical evaluation of drugs intended for human use.
Male CD-1 mice (7-8 weeks old) were obtained from Charles River Laboratories (Wilmington, Mass.). Two groups (N=18 and 27) of male CD-1 mice were used for the study. Upon arrival, the animals were placed on Rodent Diet 5001 (Purina Mills, Inc., St. Louis, Mo.).
On study day (−1), indole and indole-related TAs were formulated for oral or IV dosing by mixing the formulation components with test article in the proportions described in Table 10.1. The components were mixed by vortexing and sonicating in a warming bath for 60 minutes. Animals were fasted overnight prior to start of the study. On study day (1), formulations were sonicated for an hour to make sure that no visible particles were present prior to dosing, or if present were evenly distributed in suspension. Formulated test article were stirred continuously during dosing.
All animals were weighed on study day (1) and the body weights were recorded and used for dose calculation. The animals were dosed by either PO or IV route as outlined in Table 10.2. Blood samples (0.5 mL) were collected at specified time intervals into labeled, yellow-capped Microtainer tubes. The tubes were centrifuged (8,000×g, 10 min). Serum was then pipetted off into labeled Eppendorf® tubes and frozen at −80° C. Clinical observations were recorded as needed.
Analysis of serum samples was performed by LC/MS/MS (Waters Quattro Premier, Milford, Mass.). Areas under curves (AUC) were calculated using Graphpad Prism Version 4. Bioavailability was calculated using the following equation: (Bioavailability)=(AUC0-t,oral/AUC0-t,iv)×(Doseiv/Doseoral)×100
where AUC0-t=total area under curve at the last measurable time point

Where only a bound is given, the exact number is not on record here.

T3 sequence (P00592 23-146): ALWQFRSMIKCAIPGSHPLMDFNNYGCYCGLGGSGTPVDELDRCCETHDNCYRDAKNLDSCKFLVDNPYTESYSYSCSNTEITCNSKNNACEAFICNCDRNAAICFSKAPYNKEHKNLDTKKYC
T1 sequence (P04054 23-148): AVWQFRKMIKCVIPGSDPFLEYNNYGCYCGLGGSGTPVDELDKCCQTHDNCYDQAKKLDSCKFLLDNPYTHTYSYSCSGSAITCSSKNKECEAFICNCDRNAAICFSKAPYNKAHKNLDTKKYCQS

Consider `C=CCN(CC(=O)OCC)C(=O)COc1ccc(C(=O)OCc2ccccc2)cc1`, for which, in series [1], the IC50 result is recorded as “μM range”.
In the case of `CCN(CC)CCN(Cc1ccc(-c2ccc(C(F)(F)F)cc2)cc1)C(=O)Cn1cc(Cc2ccn(C)n2)c(=O)nc1SCc1ccc(F)cc1` [GB-480848], the IC50 entry in series [1] is “nM or subnM range”.
In the case of `Cc1c(C(=O)C(N)=O)c2c(OCC(=O)O)cccc2n1CCCCCCCCCCCCOc1ccc(C(C)(C)c2ccc(OCCCCCCCCCCCCn3c(C)c(C(=O)C(N)=O)c4c(OCC(=O)O)cccc43)cc2)cc1` [ILY4011], the “effect of test article in animals fed low fat control diet” value in series [2] and in series [3] was “No or little effect” throughout. Also, in series [4], the “clinical pathology data, treated groups vs vehicle control group” value is reported as “no differences”.
For the compound `Cc1c(C(=O)C(N)=O)c2c(OCC(=O)O)cccc2n1CCCCCCCCCCCCOc1ccc(C(C)(C)c2ccc(OCCCCCCCCCCCCn3c(C)c(C(=O)C(N)=O)c4c(OCC(=O)O)cccc43)cc2)cc1` [ILY-V-30, 2,2′-(1,1′-(12,12′-(4,4′-(propane-2,2-diyl)bis(4,1-phenylene))bis(oxy)bis(dodecane-12,1-diyl))bis(3-(2-amino-2-oxoacetyl)-2-methyl-1H-indole-4,1-diyl))bis(oxy)diacetic acid], the IC50 in series [5] is 430 nM; in series [6], 190 nM; in series [7] it was under 20 nM. In addition, the bioavailability in series [8] came to 0%.
In the case of `Cc1c(C(=O)C(N)=O)c2c(OCC(=O)O)cccc2n1CCCCCCCCCCCCOc1cc(OCCCCCCCCCCCCn2c(C)c(C(=O)C(N)=O)c3c(OCC(=O)O)cccc32)cc(OCCCCCCCCCCCCn2c(C)c(C(=O)C(N)=O)c3c(OCC(=O)O)cccc32)c1` [ILY-V-32, 2,2,′,2″-(1,1′,1″-(12,12′,12″-(benzene-1,3,5-triyltris(oxy))tris(dodecane-12,1-diyl))tris(3-(2-amino-2-oxoacetyl)-2-methyl-1H-indole-4,1-diyl))tris(oxy)triacetic acid], the IC50 in series [5] was found to be 60 nM; in series [6], 130 nM; in series [7], 90 nM. Further, the “Bioavailability (%)” value in series [8] worked out at 0.00%.
In the case of `Cc1c(C(=O)C(N)=O)c2c(OC(C(=O)O)C(C)C)cccc2n1CCCCCCCCCCCCOc1ccccc1OCCCCCCCCCCCCn1c(C)c(C(=O)C(N)=O)c2c(OC(C(=O)O)C(C)C)cccc21` (centres unmarked) [ILY-V-33, 2,2′-(1,1′-(12,12′-(1,2-phenylenebis(oxy))bis(dodecane-12,1-diyl))bis(3-(2-amino-2-oxoacetyl)-2-methyl-1H-indole-4,1-diyl))bis(oxy)bis(3-methylbutanoic acid)], the IC50 in series [5] turned out to be 220 nM; in series [6], 200 nM; in series [7], 240 nM. Also, the bioavailability in series [8] amounted to 8.75%.
On to `Cc1c(C(=O)C(N)=O)c2c(OCC(=O)O)cccc2n1CCCCCCCCCCCCOc1ccccc1-c1ccccc1OCCCCCCCCCCCCn1c(C)c(C(=O)C(N)=O)c2c(OCC(=O)O)cccc21` [ILY-V-37, [3-Aminooxalyl-1-(12-{2′-[12-(3-aminooxalyl-4-carboxymethoxy-2-methyl-indol-1-yl)-dodecyloxy]-biphenyl-2-yloxy}-dodecyl)-2-methyl-1H-indol-4-yloxy]-acetic acid], for which the IC50 in series [5] was found to be 270 nM; in series [6] it was 230 nM; in series [7], 200 nM. Further, the bioavailability in series [8] worked out at 0.15%.
On to `Cc1c(C(=O)C(N)=O)c2c(OCC(=O)O)cccc2n1CCCCCCCCCCCCOc1ccccc1OCCCCCCCCCCCC(=O)O` [ILY-V-41, 12-{2-[12-(3-Aminooxalyl-4-carboxymethoxy-2-methyl-indol-1-yl)-dodecyloxy]-phenoxy}-dodecanoic acid], for which the IC50 was found to be 1540 nM in series [5], 1600 nM in series [6] and 1140 nM in series [7]. The same compound yielded a bioavailability in series [8] of 1.62%.
`CCc1c(CC(N)=O)c2cc(OCCCP(=O)(O)O)ccc2n1Cc1ccccc1` [LY-311727]: in series [1], the IC50 entry was “sub μM range”.

(Values after patent publication US20070135383A1, “Phospholipase inhibitors, including multi-valent phospholipase inhibitors, and use thereof, including as lumen-localized phospholipase inhibitors” (priority 2005, published 2007).)
